# In US20260306476A1, “ANTIBACTERIAL COMPOUND PBT2” (priority 2022, published 2026):
# “Also recorded” adds a separate entry of the source.
# Columns and labels:
# [1] = system: MDR Neisseria gonorrhoeae; assay: RNA-seq expression profile analysis after PBT2 treatment; assay type: cell-based
# Protocol: Expression profile analysis using RNA-seq was performed to investigate the mode of action of PBT2 in killing Neisseria gonorrhoeae.
# [2] = system: gram-positive and gram-negative bacteria; details: PBT2 in the presence of zinc; cited from earlier work
# [3] = system: Neisseria meningitidis Z2491 (A); assay: MIC of PBT2 (broth and agar)
# [4] = system: primary human cervical epithelial (Pex) cells; assay: PBT2-induced Pex cell cytotoxicity; assay type: cell-based; details: PBT2 0.016 to 4.695 mg/L; 24 h
# Protocol: To assess the ability of PBT2 to cure an established gonococcal infection in a human ex vivo system, primary human cervical epithelial (Pex) cells were challenged with Neisseria gonorrhoeae strain WHO Z for 90 min and then treated with 0.1% DMSO (vehicle control), PBT2 (0.016 mg/L to 4.695 mg/L), or ceftriaxone (0.5 mg/L, positive control) for 24 h. Viable gonococci were then enumerated. […] PBT2-induced Pex cell cytotoxicity was not observed during the assay.
# [5] = system: Neisseria meningitidis PMC2 (Z/29E); assay: MIC of PBT2 (broth and agar)
# [6] = system: Neisseria gonorrhoeae ATCC49226; assay: MIC of PBT2 and comparators against CLSI reference strain; assay type: cell-based
# From the text: 13 multidrug resistant WHO strains of Neisseria gonorrhoeae were selected to cover antimicrobial resistance phenotypes to all the antibiotics currently used.
# Neisseria gonorrhoeae = assay: Antibiotic resistance development test over 30 days; assay type: cell-based; details: 30 days of daily subculture; sub-MIC PBT2 (0.156 mg/L)
# Protocol: FIG. 2: Antibiotic resistance development assay of PBT2.
# Resistance development was tested over a 30 day period with PBT2 and using Kanamycin as a control.
# [7] = system: Helicobacter pylori ATCC 43504; assay: MIC of PBT2 alone (agar); assay type: cell-based; details: ATCC43504
# [8] = system: Neisseria meningitidis PMC10 (Y); assay: MIC of PBT2 (broth and agar)
# [9] = system: Campylobacter jejuni ATCC 33560; assay: MIC of PBT2 alone (broth); assay type: cell-based; details: ATCC33560
# Protocol: (§1) The MIC of PBT2 against three Campylobacter jejuni strains was determined. All strains tested were sensitive to PBT2.
# [10] = system: Campylobacter jejuni 81-176; assay: MIC of PBT2 alone (broth); assay type: cell-based; details: 81176
# Protocol: as §1
# [11] = system: Campylobacter jejuni NCTC 11168; assay: MIC of PBT2 alone (broth); assay type: cell-based; details: NCTC11168
# Protocol: as §1
# [12] = system: Neisseria meningitidis PMC1 (X); assay: MIC of PBT2 (broth and agar)
# [13] = sub-MIC PBT2 0.156 mg/L, cut-off >=2-fold, P<0.05
# [14] = up-regulated gene WHOZ_00323 (ABC transporter periplasmic binding protein, iron related)
# [15] = up-regulated gene WHOZ_00324 (iron(III) ABC transporter permease)
smiles,measurement,setting,value
"CN(C)Cc1ccc2c(Cl)cc(Cl)c(O)c2n1 [PBT2, 5,7-dichloro-2-[(dimethylamino)methyl]quinolin-8-ol]",LogFC,[1]; down-regulated gene WHOZ_01547 (NADH dehydrogenase subunit J),1.93
same,LogFC,[1]; down-regulated gene WHOZ_01548 (NADH dehydrogenase subunit K),2.00
same,LogFC,"[1]; down-regulated gene WHOZ_01549 (NADH:ubiquinone dehydrogenase, L subunit)",1.98
same,LogFC,[1]; down-regulated gene WHOZ_01550 (Predicted HKD family nuclease),1.90
same,LogFC,[1]; down-regulated gene WHOZ_01551 (NADH dehydrogenase subunit M),1.88
same,LogFC,[1]; down-regulated gene WHOZ_01552 (NADH dehydrogenase subunit N),1.77
same,LogFC,"[1]; down-regulated gene bfr (bacterioferritin), first entry",3.03
same,LogFC,"[1]; down-regulated gene bfr (bacterioferritin), second entry",2.95
same,LogFC,[1]; down-regulated gene cysK (Cysteine synthetase),1.76
same,LogFC,[1]; down-regulated gene nqrE,1.80
same,LogFC,[1]; down-regulated gene nqrF,1.80
same,regulation of genes encoding NADH-associated proteins,"[1]; sub-MIC PBT2 0.156 mg/L, FIG. 3",down-regulated
same,number of down-regulated genes,[1]; [13],96 genes
same,number of up-regulated genes,[1]; [13],62 genes
same,LogFC,[1]; up-regulated gene WHOZ_00302 (MpeR),4.33
same,Fold Change,[1]; [14],5.44 fold
same,LogFC,[1]; [14],2.44
same,Fold Change,[1]; [15],3.74 fold
same,LogFC,[1]; [15],1.90
same,LogFC,[1]; up-regulated gene WHOZ_00403 (putative lipoprotein),4.26
same,LogFC,[1]; up-regulated gene WHOZ_00412 (putative ferredoxin),2.15
same,LogFC,[1]; up-regulated gene WHOZ_00413 (Thioredoxin),2.81
same,LogFC,[1]; up-regulated gene WHOZ_00880 (integral membrane protein),1.97
same,LogFC,[1]; up-regulated gene WHOZ_01151 (TonB-dependent receptor plug domain-containing protein),2.25
same,LogFC,[1]; up-regulated gene WHOZ_01152 (hemoglobin receptor),2.36
same,LogFC,[1]; up-regulated gene WHOZ_01153 (hemoglobin receptor),1.96
same,LogFC,[1]; up-regulated gene WHOZ_01683 (fetA),2.18
same,LogFC,[1]; up-regulated gene WHOZ_01837 (outer membrane protein),1.97
same,LogFC,[1]; up-regulated gene WHOZ_01985 (hypothetical periplasmic protein),2.46
same,LogFC,[1]; up-regulated gene WHOZ_02005 (transferrin-binding protein-like),3.33
same,LogFC,[1]; up-regulated gene WHOZ_02042 (TonB),3.58
same,LogFC,[1]; up-regulated gene WHOZ_02043 (ExbB),3.40
same,LogFC,[1]; up-regulated gene WHOZ_02044 (ExbD protein),3.64
same,LogFC,[1]; up-regulated gene WP_003690577.1 (hypothetical protein),2.20
same,LogFC,[1]; up-regulated gene WP_003690710.1 (hypothetical protein),3.11
same,LogFC,[1]; up-regulated gene fumC (Fumarase C),3.61
same,susceptibility of bacteria to antibiotics,[2],more susceptible to antibiotics
same,MIC,[3]; agar,0.039 µg/mL
same,MIC,[3]; broth,0.156 µg/mL
same,PBT2-induced Pex cell cytotoxicity,[4],not observed
same,MIC,[5]; agar,0.039 µg/mL
same,MIC,[5]; broth,0.156 µg/mL
same,MIC,"[6]; ATCC49226, ATCC49226, agar",0.625 µg/mL
same,MIC,"[6]; ATCC49226, ATCC49226, broth",0.312 µg/mL
same,antibiotic resistance development,Neisseria gonorrhoeae,No antibiotic resistance was observed; also recorded: no visible development of resistance
same,MIC,[7],2.5 µg/mL
same,MIC,[8]; agar,0.156 µg/mL
same,MIC,[8]; broth,0.625 µg/mL
same,MIC,[9],0.156 µg/mL
same,MIC,[10],0.156 µg/mL
same,MIC,[11],0.313 µg/mL
same,MIC,[12],0.039 µg/mL
